Test results published in US10335398B2 (MAXINASE LIFE SCIENCES LIMITED, priority 2015, dated 2019).

How the values were obtained:
[1] = Pharmacokinetic study on Bioadhesive Composition in Beagle dogs; details: for half-life: t1/2, Beagle dogs;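 on all read-outs here: eight Beagle dogs (4 male, 4 female), five-period crossover with 3-day washouts, plasma levels quantified by validated LC-MS/MS, oral dosing after roughly 16 h fast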
Method: (§1) Eight Beagle dogs (4 male and 4 female) participated in the study. The study was preceded in five cross-over periods, separated by 3-day washout period. For oral administration, dogs were fasted about 16 hours prior to the dosing but had free access to water. […] Each oral dosing was administered with 20-30 mL of water. […] Blood samples were collected at pre-dose (0 min) and at 5, 10, 15, 30, 45 minutes; and at 1, 2, 3, 4, 6, 8, 12, 24 hours post-dose. After the plasma-separation process, the samples were analyzed by a validated LC-MS/MS method.

in vivo = details: both, beagle, dog, plasma, 1 mg
Method: as §1

[2] = Beagle dogs, analyte 7-OH Granisetron, IV Kytril® IV Infusion 1 mg
[3] = Beagle dogs, analyte 7-OH Granisetron, nasal GNS-B01 0.5 mg
[4] = Beagle dogs, analyte 7-OH Granisetron, nasal GNS-B01 1.0 mg
[5] = Beagle dogs, analyte 7-OH Granisetron, nasal GNS-B01 2 mg
[6] = Beagle dogs, analyte 7-OH Granisetron, oral Kytril® tablet 1 mg

In the case of `CN1[C@@H]2CCC[C@H]1C[C@H](NC(=O)c1nn(C)c3c(O)cccc13)C2` [7-OH Granisetron], the “amount of 7-OH Granisetron in plasma after oral dosing compared to intranasal administration” value ([1]; Beagle dogs) is reported as “about twice as much”, the AUC0-last [1, 2] is reported as 1389 ± 465 ng·min/mL and the “AUC0-∞” value [1, 2] is reported as 1419 ± 470 ng·min/mL. It also gave a CL/F [1, 2] of 0.77 ± 0.25 L/min, a Cmax [1, 2] of 4.28 ± 1.20 ng/mL and an MRT [1, 2] of 4.95 ± 0.317 h. For the same compound, the Tmax [1, 2] was 0.813 ± 0.222 h, the t1/2 [1, 2] was 4.6 ± 0.0033 h and the AUC0-last [1, 3] was 364 ± 263 ng·min/mL. The “AUC0-∞” value [1, 3] was 386 ± 264 ng·min/mL, the CL/F [1, 3] was 2.98 ± 4.01 L/min and the MRT [1, 3] was 3.92 ± 0.817 h. It also gave a Tmax [1, 3] of 1 ± 0.423 h, a t1/2 [1, 3] of 3.88 ± 1.2 h and an AUC0-last [1, 4] of 664 ± 520 ng·min/mL. The “AUC0-∞” value [1, 4] was 691 ± 520 ng·min/mL, the CL/F [1, 4] was 2.70 ± 2.36 L/min and the Cmax [1, 4] was 2.18 ± 1.54 ng/mL. It also gave an MRT [1, 4] of 4.42 ± 0.8 h, a Tmax [1, 4] of 1.06 ± 0.395 h and a t1/2 [1, 4] of 4.37 ± 0.783 h. For the same compound, the AUC0-last [1, 5] was 1549 ± 771 ng·min/mL, the “AUC0-∞” value [1, 5] was 1609 ± 810 ng·min/mL and the CL/F [1, 5] was 1.50 ± 0.61 L/min. The Cmax [1, 5] was 4.56 ± 2.01 ng/mL, the MRT [1, 5] was 5.42 ± 0.35 h and the Tmax [1, 5] was 1.09 ± 0.597 h. The t1/2 [1, 5] was 5.1 ± 0.55 h, the AUC0-last [1, 6] was 1197 ± 446 ng·min/mL and the “AUC0-∞” value [1, 6] was 1246 ± 473 ng·min/mL. The CL/F [1, 6] was 0.90 ± 0.32 L/min, the Cmax [1, 6] was 5.73 ± 2.17 ng/mL and the MRT [1, 6] was 4.5 ± 0.683 h. It also gave a Tmax [1, 6] of 0.625 ± 0.267 h, a t1/2 [1, 6] of 4.58 ± 1.02 h and a Cmax ([1]; Beagle dogs, analyte metabolite 7-OH Granisetron, nasal GNS-B01 0.5 mg granisetron) of 1.26 ± 0.845 ng/mL.

Work on `CN1[C@@H]2CCC[C@H]1C[C@@H](NC(=O)c1nn(C)c3ccccc13)C2` [Granisetron, 1-methyl-N-((1R,3r,5S)-9-methyl-9-azabicyclo[3.3.1]nonan-3-yl)-1H-indazole-3-carboxamide, reference compound] yielded an AUC(0-t) (in vivo; iv) of 28.4 ng·h/mL, an MRT (in vivo; iv) of 1.24 h and a half-life (in vivo; iv) of 1.1 ± 0.178 h. It also gave an MRT (in vivo; po) of 1.5 h, a Vd/F (in vivo; po) of 531 ± 234 L and a half-life (in vivo; po) of about 1 h. It also gave a CL/F ([1]; Beagle dogs, analyte Granisetron, nasal GNS-B01 0.5 mg/dog) of 4.20 ± 4.35 L/min, a CL/F ([1]; Beagle dogs, analyte Granisetron, nasal GNS-B01 1.0 mg/dog) of 4.26 ± 3.69 L/min and a CL/F ([1]; Beagle dogs, analyte Granisetron, nasal GNS-B01 2 mg/dog) of 2.80 ± 2.18 L/min. It also gave a Tmax ([1]; both, beagle, dog, plasma, inhaled or intranasal, 0.5 mg, Tmax, Beagle dogs, analyte Granisetron, nasal GNS-B01 0.5 mg/dog) of 0.448 h, a half-life ([1]; both, beagle, dog, plasma, inhaled or intranasal, 0.5 mg, analyte Granisetron, nasal GNS-B01 0.5 mg/dog) of 0.997 ± 0.245 h and a Tmax ([1]; both, beagle, dog, plasma, inhaled or intranasal, 1 mg, Tmax (range), Beagle dogs, intranasal administration 1.0 mg/dog) of 0.25 to 0.75 h. It also gave a Tmax ([1]; both, beagle, dog, plasma, inhaled or intranasal, 1 mg, Tmax, Beagle dogs, analyte Granisetron, nasal GNS-B01 1.0 mg/dog) of 0.438 h, a half-life ([1]; both, beagle, dog, plasma, inhaled or intranasal, 1 mg, analyte Granisetron, nasal GNS-B01 1.0 mg/dog) of about 1 h and a Tmax ([1]; both, beagle, dog, plasma, inhaled or intranasal, 2 mg, Tmax, Beagle dogs, analyte Granisetron, nasal GNS-B01 2 mg/dog) of 0.397 h. The half-life ([1]; both, beagle, dog, plasma, inhaled or intranasal, 2 mg, analyte Granisetron, nasal GNS-B01 2 mg/dog) was 1.3 ± 0.352 h and the Tmax ([1]; both, beagle, dog, plasma, po, 1 mg, Tmax (range), Beagle dogs, oral administration 1.0 mg/dog) was 0.5 to 1 h.
